Patent US7786142B2, “Heterocyclic compounds as pSTAT3/IL-6 inhibitors” (Orchid Research Laboratories, Ltd., priority 2005, dated 2010)

Tests used:
[1] = system: NCIH460, HCT116, MDAMB-231/U 251; assay: Anti-cancer screen, mean GI50 over the cell lines; assay type: cell-based
Procedure: (§1) Experimental drugs are screened for anti-cancer activity in three cell lines for their GI50, TGI and LC50 values (using five concentrations for each compound). The cell lines are maintained in DMEM containing 10% fetal bovine serum. 96 well micro titer plates are inoculated with cells in 100 μL for 24 hours at 37° C., 5% CO2, 95% air and 100% relative humidity. 5000 HCT116 cells/well, 5000 NCIH460 cells/well and 5000 U251 cells/well are plated. A separate plate with these cell lines is also inoculated to determine cell viability before the addition of the compounds (T0), (See Table I).
(§2) Following 24-hours incubation, experimental drugs are added to the 96 well plates. Each plate contains one of the above cell lines and the following in triplicate: five different concentrations (0.01, 0.1, 1, 10 and 100 μM) of four different compounds, appropriate dilutions of a cytotoxic standard and control (untreated) wells. Compounds are dissolved in DMSO to make 20 mM stock solutions on the day of drug addition and frozen at −20° C. Serial dilutions of these 20 mM stock solutions are made in complete growth medium such that 100 μL of these drug solutions in medium, of final concentrations equaling 0.01, 0.1, 1, 10 and 100 μM can be added to the cells in triplicate. Standard drugs whose anti-cancer activity has been well documented and which are regularly used are Doxorubicin and SAHA, (See Table I).
(§3) For T0 measurement, 24 hours after seeding the cells, 10 μL of 3-(4,5-Dimethyl-2-thiazolyl)-2,5-diphenyl-2H-tetrazolium (MTT) solution per well is added and incubation carried out for 3 hours at 37° C., 5% CO2, 95% air and 100% relative humidity, protected from light. Cells incubated with compounds for 48 hours are treated similarly except with the addition of 20 μL MTT solution per well and a subsequent incubation under the same conditions. After 3 hours of MTT incubation, well contents are aspirated carefully followed by addition of 150 μL DMSO per well. Plates are agitated to ensure solution of the formazan crystals in DMSO and absorbance read at 570 nm, (See Table I).
(§4) Percent growth is calculated for each compound's concentration relative to the control and zero measurement wells (T0; viability right before compound addition). If a test well's O.D. value is greater than the T0 measurement for that cell line % Growth=(test−zero)/(control−zero)×100

NCIH460 cells = assay: Anti-cancer screen (MTT), NCIH460 cells; assay type: cell-based; details: Homo sapiens, NCI-H460, NCIH460, 48 hours, concentrations tested 0.01-100 μM; for CC50: read-out: LC50 (the source's name)
Procedure: as §1, §2, §3, §4

MDAMB-231/U 251 = assay: Anti-cancer screen (MTT), MDAMB-231/U 251 cells; assay type: cell-based; details: MDAMB-231/U 251, 48 hours, concentrations tested 0.01-100 μM; for CC50: read-out: LC50 (the source's name)
Procedure: as §1, §2, §3, §4

HCT116 cells = assay: Anti-cancer screen (MTT), HCT116 cells; assay type: cell-based; details: Homo sapiens, HCT-116, HCT116, 48 hours, concentrations tested 0.01-100 μM
Procedure: as §1, §2, §3, §4

## OC(COc1cccc2[nH]c3ccccc3c12)CN1CCCC1 (stereo not shown) [Example 6, 1-(9H-carbazol-4-yloxy)-3-pyrrolidin-1-ylpropan-2-ol]
[1]
  GI50: 10.5 µM
NCIH460 cells
  GI50: 10 µM
  IC (TGI): 42 µM
  CC50: 75 µM
MDAMB-231/U 251
  GI50: > 100 µM
  IC (TGI): > 100 µM
  CC50: > 100 µM
HCT116 cells
  GI50: > 100 µM
  IC (TGI): > 100 µM
  LC50 (concentration for 50% net cell kill relative to T0): > 100 µM

## O=C(c1ccc(-c2ccc([N+](=O)[O-])cc2)o1)N1CCN(CC(O)COc2cccc3[nH]c4ccccc4c23)CC1 (stereo not shown) [Example 40, 1-(9H-carbazol-4-yloxy)-3-{4-[5-(4-nitrophenyl)-2-furoyl]piperazin-1 yl}propan-2-ol]
other
  melting point: 101 to 104 °C

## O=C(c1cc2ccccc2[nH]1)N1CCN(CC(O)COc2cccc3[nH]c4ccccc4c23)CC1 (stereo not shown) [Example 38, 1-(9H-carbazol-4-yloxy)-3-[4-(1H-indole-2-carbonyl)piperazin-1-yl]propan-2-ol]
other
  melting point: 215 to 218 °C

## O=C(Cc1ccc(F)cc1)N1CCC(NCC(O)COc2cccc3[nH]c4ccccc4c23)CC1 (stereo not shown) [Example 66]
[1]
  GI50: 18.3 µM
NCIH460 cells
  GI50: 14 µM
  IC (TGI): 54 µM
  CC50: 79 µM
MDAMB-231/U 251
  GI50: 15 µM
  IC (TGI): 48 µM
  CC50: 77 µM
HCT116 cells
  GI50: 26 µM
  IC (TGI): 49 µM
  LC50 (concentration for 50% net cell kill relative to T0): 84 µM

## OC(CNc1nc2ccccc2[nH]1)COc1cccc2[nH]c3ccccc3c12 (stereo not shown) [Example 19, 1-(1H-Benzimidazol-2-ylamino)-3-(9H-carbazol-4-yloxy)propan-2-ol]
[1]
  GI50: 28.7 µM
NCIH460 cells
  GI50: 7.5 µM
  IC (TGI): 35 µM
  CC50: 70.5 µM
MDAMB-231/U 251
  GI50: 51.5 µM
  IC (TGI): 67 µM
  CC50: 85 µM
HCT116 cells
  GI50: 27 µM
  IC (TGI): 52 µM
  LC50 (concentration for 50% net cell kill relative to T0): 79 µM

## O=C(c1ccc2c(c1)OCO2)N1CCC(NCC(O)COc2cccc3[nH]c4ccccc4c23)CC1 (stereo not shown) [Example 68, 3-{[1-(1,3-Benzodioxol-5-ylcarbonyl)piperidin-4-yl]amino}-1-(9H-carbazol-4-yloxy)propan-2-ol]
other
  melting point: 88 to 90 °C

## O=C(c1ccco1)N1CCN(CC(O)COc2cccc3[nH]c4ccccc4c23)CC1 (stereo not shown) [Example 37, 1-(9H-carbazol-4-yloxy)-3-[4-(2-furoyl)piperazin-1-yl]propan-2-ol]
other
  melting point: 85.1 to 89.1 °C

## OC(COc1cccc2[nH]c3ccccc3c12)CN1CCN(CC2CC2)CC1 (stereo not shown) [Example 29, 1-(9H-carbazol-4-yloxy)-3-[4-(cyclopropylmethyl)piperazin-1-yl]propan-2-ol]
other
  melting point: 51 to 56 °C

## O=C(c1cccs1)N1CCN(CC(O)COc2cccc3[nH]c4ccccc4c23)CC1 (stereo not shown) [Example 39, 1-(9H-carbazol-4-yloxy)-3-[4-(thiophene-2-carbonyl)piperazin-1-yl]propan-2-ol]
other
  melting point: 80 to 83 °C

## OC(COc1cccc2[nH]c3ccccc3c12)CN1CCN(Cc2ccc(Br)cc2F)CC1 (stereo not shown) [Example 32, 1-(9H-carbazol-4-yloxy)-3-[4-(4-bromo-2-fluorobenzyl)piperazin-1-yl]propan-2-ol]
other
  melting point: 68 to 70 °C

## COc1cc(OC)c(CN2CCN(CC(O)COc3cccc4[nH]c5ccccc5c34)CC2)c(OC)c1 (stereo not shown) [Example 34, 1-(9H-carbazol-4-yloxy)-3-[4-(2,4,6-trimethoxybenzyl)piperazin-1-yl]propan-2-ol]
other
  melting point: 119 to 122 °C

## N#Cc1ccc(C(=O)N2CCN(CC(O)COc3cccc4[nH]c5ccccc5c34)CC2)cn1 (stereo not shown) [Example 47, 1-(9H-carbazol-4-yloxy)-3-[4-(6-cyanonicotine-3-carbonyl)piperazin-1-yl]propan-2-ol]
other
  melting point: 92 to 95 °C

## OC(COc1cccc2[nH]c3ccccc3c12)CN1CCN(Cc2nccs2)CC1 (stereo not shown) [Example 28, 1-(9H-carbazol-4-yloxy)-3-{4-[(thiazol-2-yl)methyl]piperazin-1-yl}propan-2-ol]
other
  melting point: 57 to 62 °C

## O=C(c1cnc2ccccc2n1)N1CCN(CC(O)COc2cccc3[nH]c4ccccc4c23)CC1 (stereo not shown) [Example 46, 1-(9H-carbazol-4-yloxy)-3-[4-(quinoxaline-2-carbonyl)piperazin-1-yl]propan-2-ol]
other
  melting point: 89 to 92 °C

## O=C(c1ccc(Br)s1)N1CCN(CC(O)COc2cccc3[nH]c4ccccc4c23)CC1 (stereo not shown) [Example 56, 3-[4-(5-Bromothiophene-2-carbonyl)piperazin-1-yl]-1-(9H-carbazol-4-yloxy) propan-2-ol]
other
  melting point: 78 to 80 °C

## O=C(c1cc([N+](=O)[O-])[nH]n1)N1CCN(CC(O)COc2cccc3[nH]c4ccccc4c23)CC1 (stereo not shown) [Example 36, 1-(9H-carbazol-4-yloxy)-3-[4-(5-nitro-1H-pyrazole-3-carbonyl)piperazin-1-yl]propan-2-ol]
other
  melting point: 140 to 144 °C

## CSc1ccc(CN2CCN(CC(O)COc3cccc4[nH]c5ccccc5c34)CC2)cc1 (stereo not shown) [Example 33, 1-(9H-carbazol-4-yloxy)-3-[4-(4-methylthiobenzyl)piperazin-1-yl]propan-2-ol]
other
  melting point: 69 to 71 °C

## O=C(Cc1c(F)c(F)c(F)c(F)c1F)N1CCC(NCC(O)COc2cccc3[nH]c4ccccc4c23)CC1 (stereo not shown) [Example 69, 1-(9H-carbazol-4-yloxy)-3-{[1-(pentafluorophenyl)acetylpiperidin-4-yl]amino}propan-2-ol]
other
  melting point: 80 to 83 °C

## COc1ccc(CC(=O)N2CCC(NCC(O)COc3cccc4[nH]c5ccccc5c34)CC2)cc1 (stereo not shown) [Example 71, 1-(9H-carbazol-4-yloxy)-3-{[1-(4-methoxyphenylacetyl)piperidin-4-yl]amino}propan-2-ol]
other
  melting point: 54 to 57 °C

## COc1cccc2sc(NC(=O)CN3CCN(CC(O)COc4cccc5[nH]c6ccccc6c45)CC3)nc12 (stereo not shown) [Example 61, 2-{4-[3-(9H-carbazol-4-yloxy)-2-hydroxypropyl]-piperazin-1-yl}-N-(4-methoxy-1,3-benzothiazol-2-yl)acetamide]
other
  melting point: 289 to 292 °C

## O=C(c1ccc2c(c1)OCO2)N1CCN(CC(O)COc2cccc3[nH]c4ccccc4c23)CC1 (stereo not shown) [Example 50, 1-(9H-carbazol-4-yloxy)-3-[4-(1,3-benzodioxol-5-ylcarbonyl)piperazin-1-yl]propan-2-ol]
other
  melting point: 70 to 73 °C

## COc1ccc(CC(=O)N2CCN(CC(O)COc3cccc4[nH]c5ccccc5c34)CC2)cc1 (stereo not shown)
other
  melting point: 166 to 169 °C

## O=C(/C=C/c1ccc2c(c1)OCO2)N1CCN(CC(O)COc2cccc3[nH]c4ccccc4c23)CC1 (stereo not shown) [Example 45, 1-(9H-carbazol-4-yloxy)-3-{4-[(2E)-3-(1,3-benzodioxol-5-yl)acryloyl]piperazin-1-yl}propan-2-ol]
other
  melting point: 90 to 93 °C

## O=C(CCc1cc2ccccc2[nH]1)N1CCN(CC(O)COc2cccc3[nH]c4ccccc4c23)CC1 (stereo not shown) [Example 51]
other
  melting point: 112 to 114 °C

## O=C(Cc1ccc(O)c(F)c1)N1CCN(CC(O)COc2cccc3[nH]c4ccccc4c23)CC1 (stereo not shown)
other
  melting point: 111 to 113 °C

## CC(=O)c1ccc(S(=O)(=O)N2CCN(CC(O)COc3cccc4[nH]c5ccccc5c34)CC2)cc1 (stereo not shown) [Example 75, 3-[4-(4-Acetylphenylsulfonyl)piperazin-1-yl]-1-(9H-carbazol-4-yloxy)propan-2-ol]
other
  melting point: 183 to 185 °C

## COc1ccc(C(=O)N2CCN(CC(O)COc3cccc4[nH]c5ccccc5c34)CC2)cc1OC (stereo not shown) [Example 42, 1-(9H-carbazol-4-yloxy)-3-[4-(3,4-dimethoxybenzoyl)piperazin-1-yl]propan-2-ol]
other
  melting point: 98 to 101 °C

## O=C(c1cc2ccccc2o1)N1CCN(CC(O)COc2cccc3[nH]c4ccccc4c23)CC1 (stereo not shown) [Example 54, 3-[4-(1-Benzofuran-2-ylcarbonyl)piperazin-1-yl]-1-(9H-carbazol-4-yloxy)propan-2-ol]
other
  melting point: 93 to 96 °C

## O=C(Cc1ccc(F)cc1)N1CCN(CC(O)COc2cccc3[nH]c4ccccc4c23)CC1 (stereo not shown)
other
  melting point: 79 to 81 °C

## O=C(Cc1c(F)c(F)c(F)c(F)c1F)N1CCN(CC(O)COc2cccc3[nH]c4ccccc4c23)CC1 (stereo not shown)
other
  melting point: 93 to 96 °C

## O=C(CN1CCN(CC(O)COc2cccc3[nH]c4ccccc4c23)CC1)Nc1ccccc1 (stereo not shown) [Example 62, 2-{4-[3-(9H-carbazol-4-yloxy)-2-hydroxypropyl]-piperazin-1-yl}-N-phenyl acetamide]
other
  melting point: 69 to 71 °C
